# Results as given in patent US20210251237A1, “PLATFORM FOR DEVELOPING SOIL-BORNE PLANT PATHOGEN INHIBITING MICROBIAL CONSORTIA” (priority 2018, published 2021).
# Entries after “also recorded” stand apart in the source; their conditions may differ. Like-named read-outs stand apart in the source and are kept apart here.
# What was measured:
# [1] = system: Sclerotinia sclerotiorum; test: Pathogen suppressive activity plate assay (zone of inhibition); type: cell-based; details: for mean inhibitory zone size: Table 4
# [2] = system: Fusarium virguliforme; test: as above; type: cell-based; details: Table 4
# [3] = system: clinical antimicrobials (antibiotic discs); test: Antibiotic disc resistance/susceptibility assay of microbial isolates; type: cell-based
# [4] = system: Fusarium graminearum; type: cell-based; details: for zone of inhibition: Table 1; for mean inhibitory zone size: Table 4
# [5] = system: Phytophthora medicaginis; test: Pathogen suppressive activity plate assay (zone of inhibition); type: cell-based; details: for zone of inhibition: Table 1; for mean inhibitory zone size: Table 4
# [6] = system: Phytophthora medicaginis; test: Phytophthora medicaginis control on alfalfa, greenhouse; type: in vivo; details: field soil naturally infested, 28 days, inoculated vs non-inoculated
# From the text: FIG. 7A-B. Inoculant included in this figure: GS1. FIG. 7A depicts the severity of disease on […]. The present figure was constructed utilizing methods from Example 9(F)(iii). […] Briefly, soils were inoculated with a liquid spore suspension of a single Streptomyces isolate at planting. Alfalfa seeds were planted into field soil that was naturally-infested with the pathogen Phytophthora medicaginis. After 28 days, plants were harvested for disease and biomass assessments.
# Inoculum was prepared as described above, and used to inoculate seeds planted in field soil placed in sterile tins. Inoculation occurred immediately after planting. […] GS1 was thus shown to promote plant growth.
# [7] = system: corn; test: Plant growth promotion, greenhouse (FIG. 27); type: in vivo
# Procedure: (§1) Wheat, alfalfa, corn, and soybean plants were evaluated for the growth response to microbial inoculants in growth chamber and greenhouse conditions. For each crop, containers (6.5 cm diameter x 25 cm long) were filled with steamed (sterile) greenhouse soil mix (500 ml) and planted with two (corn, soy, wheat) or three (alfalfa) seeds. Crop varieties were: SOY: AG 0832; CORN: Viking, WHEAT: Prosper, ALFALFA: Saranac. Seeds were inoculated with microbial isolates from the enriched microbial library immediately after planting (2 ml of water agar containing the inoculant per seed, 1×10^11 cells inoculant/ml). Control plants were allowed to grow without the microbial inoculants Plants were grown in the greenhouse and harvested at 3 weeks (corn), 4 weeks (wheat), 4.5 weeks (soybean) and 5 weeks (alfalfa). At harvest, the roots were carefully washed, and above- and belowground fresh weights were recorded (g). Plants were subsequently placed in paper bags and maintained in the 95° F. drying oven for 3 days, after which dry weights were also recorded. Plant weights were compared between inoculated and non-inoculated treatments.
# (§2) For each crop (wheat, alfalfa, soybean, corn), a container (6.5 cm dia×25 cm long; approximately 500 cc of soil) was filled with steamed (sterile) greenhouse soil mix and planted with two of each seed (corn, soy, wheat) or three seeds (alfalfa) at a 0.5 inch depth. Crop varieties were: SOY: AG 0832; CORN: Viking, WHEAT: Prosper, ALFALFA: Saranac. Wheat, soybean and corn seeds (but not alfalfa) were surface sterilized before planting. Seeds were not treated with any fungicides or other chemicals. All crops were thinned to one seed per container following emergence. Ten replicate containers were planted for each inoculant and for the non-inoculated control.
# (§3) Streptomyces cultures GS1 and PS1 were grown for 7-10 days on plates containing oatmeal agar (OA), and collected in 20% glycerol stocks. Stocks were serially diluted and plated on water agar (WA) for quantification. Stocks were then diluted to approximately 1×10^11 colony-forming units per ml.
# (§4) For each inoculant, 2 ml of stock was distributed over the seeds at planting. Seeds and containers were watered when needed. Plants were incubated in the greenhouse and harvested at 3 weeks (corn), 4 weeks (wheat), 4.5 weeks (soybean) and 5 weeks (alfalfa). No additional nitrogen was added. At harvest for each crop, the roots were carefully washed, and above- and belowground fresh weights were recorded (g). Plants were subsequently placed in paper bags and maintained in the 95° F. drying oven for 3 days, after which dry weights were also recorded. Plant weights were compared between inoculated and non-inoculated treatments.
# [8] = system: alfalfa; test: Plant growth promotion, greenhouse (FIG. 27); type: in vivo
# Procedure: as §1, §2, §3, §4
# [9] = system: wheat; test: Plant growth promotion, greenhouse (FIG. 27); type: in vivo
# Procedure: as §1, §2, §3, §4
# [10] = system: soybean; test: Plant growth promotion, greenhouse (FIG. 27); type: in vivo
# Procedure: as §1, §2, §3, §4
# [11] = system: Wheat, alfalfa, corn, and soybean plants; test: Plant growth promotion, greenhouse (FIG. 27); type: in vivo; details: plant biomass
# Procedure: as §1, §2, §3, §4
# [12] = system: Phytophthora sojae; test: Pathogen suppressive activity plate assay (zone of inhibition); type: cell-based
# [13] = system: F. culmorum; test: as above; type: cell-based; details: Table 1; pathogen isolate P61
# [14] = system: Pythium ultimum var. sporangiferum; test: as above; type: cell-based
# [15] = system: Fusarium oxysporum; test: as above; type: cell-based; details: for zone of inhibition: Table 1; for mean inhibitory zone size: Table 4
# [16] = system: Rhizoctonia solani; test: as above; type: cell-based; details: for mean inhibitory zone size: Table 4
# [17] = system: potato scab; test: Potato field trials: percent scab control; type: in vivo; design: concentration or dose not given beside the values
# [18] = system: Phytophthora sojae; test: Phytophthora sojae control on soybean, growth chamber; type: in vivo; details: growth chamber trials
substance,measurement,setting,value
Streptomyces lydicus [GS1],zone of inhibition,"[1]; Table 1, pathogen isolate P19",8.63 mm
same,mean inhibitory zone size,[1]; pathogen target isolate P17,16.8 mm
same,mean inhibitory zone size,[1]; pathogen target isolate P18,12.8 mm
same,mean inhibitory zone size,[1]; pathogen target isolate P19,8.63 mm
same,mean inhibitory zone size,[2]; pathogen target isolate P20,0 mm
same,mean inhibitory zone size,[2]; pathogen target isolate P21,1.3 mm
same,mean inhibitory zone size,[2]; pathogen target isolate P22,0 mm
same,mean inhibitory zone size,[2]; pathogen target isolate P23,0 mm
same,Antibiotic resistance characteristics,[3]; Amoxicillin Clavulanate,R (R-resistant (0 inhibition zone))
same,Antibiotic resistance characteristics,[3]; Chloramphenicol,R (R-resistant (0 inhibition zone))
same,Antibiotic resistance characteristics,[3]; Erythromycin,S (S-susceptible (>10 mm))
same,Antibiotic resistance characteristics,[3]; Kanamycin,S (S-susceptible (>10 mm))
same,Antibiotic resistance characteristics,[3]; Novobiocin 5,MS (MS-moderately susceptible (6-10 mm))
same,Antibiotic resistance characteristics,[3]; Novobiocin 30,MS (MS-moderately susceptible (6-10 mm))
same,Antibiotic resistance characteristics,[3]; Penicillin,R (R-resistant (0 inhibition zone))
same,Antibiotic resistance characteristics,[3]; Rifampin,R (R-resistant (0 inhibition zone))
same,Antibiotic resistance characteristics,[3]; Streptomycin,S (S-susceptible (>10 mm))
same,Antibiotic resistance characteristics,[3]; Tetracycline,R (R-resistant (0 inhibition zone))
same,Antibiotic resistance characteristics,[3]; Vancomycin 5,MS (MS-moderately susceptible (6-10 mm))
same,Antibiotic resistance characteristics,[3]; Vancomycin 30,MS (MS-moderately susceptible (6-10 mm))
same,zone of inhibition,[4]; pathogen isolate P31,8.63 mm
same,zone of inhibition,[4]; pathogen isolate P34,16.28 mm
same,mean inhibitory zone size,[4]; pathogen target isolate P30,14.58 mm
same,mean inhibitory zone size,[4]; pathogen target isolate P31,8.63 mm
same,mean inhibitory zone size,[4]; pathogen target isolate P32,11.5 mm
same,mean inhibitory zone size,[4]; pathogen target isolate P33,13.13 mm
same,mean inhibitory zone size,[4]; pathogen target isolate P34,16.28 mm
same,mean inhibitory zone size,[4]; pathogen target isolate P35,11.03 mm
same,zone of inhibition,[5]; pathogen isolate P43,4.53 mm
same,zone of inhibition,[5]; pathogen isolate P44,10.45 mm
same,mean inhibitory zone size,[5]; pathogen target isolate P43,4.53 mm
same,mean inhibitory zone size,[5]; pathogen target isolate P44,10.45 mm
same,disease,[6],significantly reduced; also recorded: reduced disease
same,plant biomass,[6],significantly increased; also recorded: significant increases
same,fresh and dry weights,[7],not
same,fresh and dry weights,[8],significant enhancements
same,growth promotion,[8]; FIG. 27,promote the growth
same,fresh and dry weights,[9],not
same,dry weight,[10],significant increases
same,promotion of growth of inoculated vs non-inoculated plants,[11],statistically significant effect
same,inhibition of pathogen (in words),[12]; P52 isolate of Phytophthora sojae,does not
same,zone of inhibition,"[12]; Table 1, pathogen isolate P52",0 mm
same,mean inhibitory zone size,"[12]; Table 4, pathogen target isolate P52",0 mm
same,zone of inhibition,[13],4.68 mm
same,zone of inhibition,"[14]; Table 1, pathogen isolate P58",9.95 mm
same,mean inhibitory zone size,"[14]; Table 4, pathogen target isolate P58",9.95 mm
same,zone of inhibition,[15]; pathogen isolate P27,0 mm
same,zone of inhibition,[15]; pathogen isolate P29,0 mm
same,mean inhibitory zone size,[15]; pathogen target isolate P25,2.15 mm
same,mean inhibitory zone size,[15]; pathogen target isolate P26,9.38 mm
same,mean inhibitory zone size,[15]; pathogen target isolate P28,0 mm
same,mean inhibitory zone size,[15]; pathogen target isolate P29,0 mm
same,inhibition of pathogen (in words),[16]; P6 isolate of Rhizoctonia solani,inhibits
same,zone of inhibition,"[16]; Table 1, pathogen isolate P6",9.15 mm
same,mean inhibitory zone size,[16]; pathogen target isolate P5,8.95 mm
same,mean inhibitory zone size,[16]; pathogen target isolate P6,9.15 mm
same,mean inhibitory zone size,[16]; pathogen target isolate P12,9.78 mm
same,Percent Control (reduction in scab severity vs non-inoculated plots),"[17]; experiment BPP, disease on non-inoculated tubers 22.2",33%
same,Percent Control (reduction in scab severity vs non-inoculated plots),"[17]; experiment BSCR, disease on non-inoculated tubers 16.2",35%
same,Percent Control (reduction in scab severity vs non-inoculated plots),"[17]; experiment BSP, disease on non-inoculated tubers 24.3",42%
same,Percent Control (reduction in scab severity vs non-inoculated plots),"[17]; experiment BWP, disease on non-inoculated tubers 26.7",38%
same,Percent Control (reduction in scab severity vs non-inoculated plots),"[17]; experiment RPP, disease on non-inoculated tubers 15.6",37%
same,Percent Control (reduction in scab severity vs non-inoculated plots),"[17]; experiment RSP, disease on non-inoculated tubers 8.8",39%
same,reduction of disease severity,[18]; soil infested with P. sojae,93%
same,percent healthy plants,[18]; FIG. 7A,increased
